According to ChEMBL document CHEMBL4425159, “Design, synthesis and antimalarial evaluation of novel thiazole derivatives” (Bioorg Med Chem Lett, 2016):

How the values were obtained:
[1] = test system: Plasmodium falciparum; test: Antimalarial activity against chloroquine sensitive-Plasmodium falciparum 3D7 assessed as growth inhibition preincubated for 24 hrs followed by [3H]-hypoxanthine incorporation measured after 24 hrs by scintillation counting; assay type: functional, organism-based
[2] = test system: HepG2; test: Cytotoxicity against human HepG2 cells assessed as cell growth inhibition; assay type: cell-based
[3] = Lipophilicity, log D of the compound by chromatographic method; assay type: physicochemical

Row | SMILES | IC50 [1] [nM] | further results
1 | CC(C)c1sc(N(C)CCO)nc1C(=O)Nc1ccc(F)cc1C(F)(F)F | 3260 | 
2 | CC(C)c1sc(N2CCN(C)CC2)nc1C(=O)Nc1ccccc1C(F)(F)F | 31 | IC50 [2]: 50000 nM
3 | CC(C)c1sc(N2CCN(C)CC2)nc1C(=O)Nc1cc(F)cc(F)c1 | > 5000 | 
4 | CC(C)c1sc(N2CCN(C)CC2)nc1C(=O)Nc1c(Cl)cc(F)cc1Cl | > 5000 | 
5 | Cc1ccc(NC(=O)c2nc(N3CCN(C)CC3)sc2C(C)C)c(Cl)c1 | 3270 | 
6 | CC(C)c1sc(N2CCN(C)CC2)nc1C(=O)Nc1cnccc1Cl | 1700 | 
7 | CC(C)c1sc(N2CCN(C)CC2)nc1C(=O)Nc1ccccc1OC(F)(F)F | 34 | IC50 [2]: > 100000 nM
8 | CC(C)c1sc(N2CCN(C)CC2)nc1C(=O)Nc1ccc(F)cc1 | > 5000 | 
9 | COc1ccccc1NC(=O)c1nc(N2CCN(C)CC2)sc1C(C)C | 350 | 
10 | CC(C)c1sc(N2CCOCC2)nc1C(=O)Nc1ccc(F)cc1C(F)(F)F | 102 | 
11 | CC(C)c1sc(N2CCN(C)CC2)nc1C(=O)Nc1ccccc1S(N)(=O)=O | > 5000 | 
12 | Cc1cc(F)ccc1NC(=O)c1nc(N2CCN(C)CC2)sc1C(C)C | 720 | 
13 | CC(C)c1sc(N2CCN(C)CC2)nc1C(=O)Nc1c(F)cccc1F | > 5000 | 
14 | CC(C)c1sc(N2CCN(C)CC2)nc1C(=O)Nc1ccccc1CO | > 5000 | 
15 | CC(C)c1sc(N2CCN(C)CC2)nc1C(=O)Nc1ccc(C(F)(F)F)cc1Cl | > 5000 | 
16 | CC(C)c1sc(N2CCN(C)CC2)nc1C(=O)Nc1ccccc1C#N | 98 | IC50 [2]: 32000 nM
17 | CC(C)c1sc(N2CCN(C)CC2)nc1C(=O)Nc1ccccc1Cl | 58 | IC50 [2]: > 100000 nM
18 | CC(C)c1sc(N(C)CCN(C)C)nc1C(=O)Nc1ccc(F)cc1C(F)(F)F | 3150 | 
19 | CC(C)c1sc(N2CCN(C)CC2)nc1C(=O)Nc1ccccc1C(N)=O | > 5000 | 
20 | CC(C)c1sc(N2CCN(C)CC2)nc1C(=O)Nc1ccc(F)cc1Cl | 58 | IC50 [2]: > 100000 nM
21 | CC(C)c1sc(N2CCN(C)CC2)nc1C(=O)Nc1ccc(F)cc1F | 1190 | 
22 | COCCN(C)c1nc(C(=O)Nc2ccc(F)cc2C(F)(F)F)c(C(C)C)s1 | 590 | 
23 | CC(C)c1sc(N2CCN(C)CC2)nc1C(=O)Nc1cccnc1Cl | 80 | chromatographic logD [3]: 7.8; IC50 [2]: > 100000 nM
24 | CC(C)c1sc(N2CCN(C)CC2)nc1C(=O)Nc1ccccc1F | 260 | 
25 | CC(C)c1sc(N2CCN(C)CC2)nc1C(=O)Nc1cccc(Cl)n1 | 350 | 
26 | CC(C)c1sc(N2CCN(C)CC2)nc1C(=O)Nc1c(Cl)cc(C(F)(F)F)cc1Cl | > 5000 | 
27 | CC(C)c1sc(N2CCN(C)CC2)nc1C(=O)Nc1cccnc1 | > 5000 | 
28 | CC(C)c1sc(N2CCN(C)CC2)nc1C(=O)Nc1ncccc1Cl | > 5000 | 
29 | CC(C)c1sc(N2CCN(C)CC2)nc1C(=O)Nc1ccc(F)cc1C(F)(F)F | 24 | logD [3]: 9.06; IC50 [2]: 78000 nM
